US6518221B1, “Plant growth regulator and method for using same” (Wilbur-Ellis Company, priority 2002, dated 2003)

How the values were obtained:
Format in all cases: in vivo
[1] = test system: Stoneville cotton variety; assay: Field study in Mississippi on Stoneville cotton: fruit (boll) set; settings: 10 grams per acre, applied once on July 8th, with 5.0% calcium and 1.25% zinc
Experimental: A field study was conducted in the State of Mississippi on a Stoneville cotton variety, in which the physiological characteristics of plants treated with the plant growth regulator of the present invention (a mixture of CCC, WSCP, and CC), were compared to the characteristics of untreated plants, or “checks”, and the characteristics of plants treated with PIX.
The formulation of the present invention used in Example 2 was as follows: the ratio of WSCP to CCC was reduced to 2.7:1, and the ratio of CC (Choline Chloride) to CCC was 0.6:1. Also added to the formulation was 5.0% calcium and 1.25% zinc.
The rate of PIX application was 10 grams per acre, applied once on July 8th of the study year. The rate and timing of this application was consistent with the manufacturer's label recommendation. The rate of application of the plant growth regulator of the present invention was 2.5 grams per acre, applied once on June 28th and again on July 18th. As with Example 1, the formulations of PIX used in Example 2, included 5.0% calcium and 1.25% zinc.
The physiological characteristics under study determine the effectiveness of the chemical products on fruit, or boll, set. The first fruiting position on a reproductive branch is the most important plant feature that affects expected plant yield. Consequently, the higher the percentage of fruit set at the first fruiting position the higher the fruit yield potential.

[2] = test system: MAXXA cotton; assay: Study on MAXXA cotton: effects on plant growth and development; settings: 10 gm/A
Experimental: A study was conducted on MAXXA cotton to determine the effects of Mepiquat Chloride and the combination of (CCC) chlormequat chloride/WSCP on plant growth and development.
In this example, the amount of WSCP used in each chemical treatment was constant, and the amount of CCC varied from 2.5 to 5.0 grams/acre. The corresponding ratios of WSCP and CCC were as follows: at the 2.5 gram/acre rate the ratio of WSCP to CCC was 30:1; at the 5.0 gram/acre rate the ratio of WSCP to CCC was 15:1. It should also be noted that 5.0% calcium and 1.25% zinc were also added to each of the mixtures.

[3] = test system: cotton; assay: Field trials in Greece: plant growth regulating effects (plant height); settings: 20.0 gm/Ha
From the text: Field trials were established in the country of Greece to determine the plant growth regulating effects of several products, including the chemical formulation of the present invention. The particular formulation of the present invention used in these trials, was as follows: 1.0 parts CCC; 2.7 parts WSCP; 0.6 parts CC; 27 parts Calcium; and, 6.75 parts Zinc (parts per weight). All of the chemical applications were applied at the same time, and there were three replications at each trial site.

C[N+]1(C)CCCCC1.[Cl-] [Mepiquat Chloride, N,N-dimethylpiperidinium chloride]
First Fruiting Branch [1]: 6 | Percentage Of First Fruiting Positions (Nodes 6-13) [1]: 76.3% | Total Percentage Of Fruit Set (Nodes 6-13) [1]: 65.0% | Average Bottom 5 FPB (First Position Bolls As A Percentage) [2]: 60.0 Percentage | Average Fruiting Branches [2]: 15.7 | Average Nodes [2]: 21.7 | Average Plant Height [2]: 35.9″ | Average Top 5 FPB (First Position Bolls As A Percentage) [2]: 43.0 Percentage | Average Vegetative Nodes [2]: 6.1 | Plant Height ([3]; Site 1): 10.00 Cm | Plant Height ([3]; Site 2): 27.33 Cm | Plant Height ([3]; Site 3): 7.78 Cm
